According to US11179469B2, “Transdermal absorption preparation” (Nitto Denko Corporation, priority 2017, dated 2021):

Assay: Octanol/water partition coefficient of the drug (log P1)
Type: physicochemical
Conditions: base 10 logarithm
From the text: The octanol/water partition coefficient is the ratio of the distribution of a certain chemical substance respectively to n-octanol and water (ratio of the concentration in n-octanol phase and aqueous phase). It is used as an index showing hydrophobicity and transferability of the chemical substance, and can be measured by the flask shaking method prescribed in the Economic Development Cooperation Organization (OECD) Test Guideline 107 and the like or calculated using the calculation software (“Cache Workspace (registered trade mark)” manufactured by Fujitsu Limited) etc. and inputting the structural formula of the compound. The octanol/water partition coefficient of the polymer is calculated using the molecule structural formula in a monomer unit.

SMILES | logP1 (octanol/water partition coefficient of the drug)
CC(C)(C)NCC(O)c1ccccc1Cl (centres unmarked) [Tulobuterol] | 2.55
CC(C)C[C@H](CN)CC(=O)O [pregabalin] | 0.89
